Test results as given in article PMC9539459 (Virology, 2022).
“Also recorded” adds a separate entry of the source. Read-outs that look alike come from different tables or passages of the source.

Columns and labels:
SARS-CoV-2 [1] = test: Cell-based antiviral drug testing in Vero-E6 cells; settings: for antiviral activity (in words): top 9 screened compounds, Vero-E6, percent inhibition, SRB assay
SARS-CoV-2 [2] = assay type: cell-based

| SMILES | antiviral activity (in words) (SARS-CoV-2 [1]) | inhibition of viral particle production (in words) (SARS-CoV-2 [2]) | EC50 (SARS-CoV-2 [1]) | reduction of infectious virus production (SARS-CoV-2 [2]) | inhibition of viral particle production (in words) (SARS-CoV-2 [2]; listed as darglitazone sodium) |
| --- | --- | --- | --- | --- | --- |
| C/C=C(/C)C(=O)OC(C)(C)[C@@H]1Cc2c(ccc3ccc(=O)oc23)O1 [Columbianadin] | substantial antiviral activity | inhibit production of SARS-CoV-2 |  |  |  |
| Cc1oc(-c2ccccc2)nc1CCC(=O)c1ccc(CC2SC(=O)NC2=O)cc1 (stereo not shown) [Darglitazone Sodium] | substantial antiviral activity | greater anti-SARS-CoV-2 activity | < 10 µM | over 3 orders of magnitude | inhibit production of SARS-CoV-2 |
| CNC(=O)c1ccc(-c2cnc3ncc(Cc4ccc5ncccc5c4)n3n2)cc1F [INCB28060] | best antiviral activity; also recorded: substantial antiviral activity | inhibit production of SARS-CoV-2; also recorded: greater anti-SARS-CoV-2 activity |  | over 3 orders of magnitude |  |
